The procedure of series [1]: 18:1 DEPX was prepared as liposomes so that 500 μg of lipid was delivered in a 50 μL volume. 6-week old female BALB/C mice were purchased from Jackson laboratories and divided into groups of 5. Each group was inoculated with 500 μg of 18:1 DEPX by intranasal inoculation. Groups of 5 mice were sacrificed and lavaged at the following time points: 0 hours, 3 hours, 6 hours, 18 hours and 24 hours. Lipids were extracted from mice BALF by Bligh-Dyer (“A rapid method of total lipid extraction and purification.,” Can. J. Biochem. Physiol., vol. 37, no. 8, pp. 911-7, August 1959), and quantified by phosphorus analysis. 150 nmol of lipid extracted from each mouse was separated by lipid class utilizing the Touchstone solvent system (refer to methods) and thin layer chromatography. 0.1% ANSA and UV light was used to visualize lipids from the thin layer chromatogram. Individual xylitol lipid bands were cut out from the silica and quantified by phosphorus analysis.
To determine how quickly 18:1 DEPX turns over in the mouse lung, female BALB/C mice that were 6-8 weeks old were inoculated with 500 μg of lipid by intranasal delivery in a 50 μL volume. Mice were sacrificed at time periods of, 0 hours, 3 hours, 6 hours, 18 hours and 24 hours following lipid delivery and bronchoalveolar lavage fluid (BALF) was collected. Lipids were extracted from BALF by the Bligh-Dyer method and total lipid extracts were quantified by phosphorus analysis (G. Rouser, et al., “Quantitative analysis of phospholipids by thin-layer chromatography and phosphorus analysis of spots.,” Lipids, vol. 1, no. 1, pp. 85-6, January 1966). To separate the various lipid classes present in BALF, thin layer chromatography on a Merck Silica 60 glass plate with a touchstone solvent system was utilized. The silica plate was scored in lanes according to number of samples, 150 nmol of total lipid was spotted onto each lane and solvent was developed for 90 minutes. The plate was air dried and sprayed with 0.1% ANSA-water then exposed to UV light to reveal migration of lipids on the plate. The spots corresponding to xylitol lipids were cut out and quantified by phosphorous analysis.
Because toxicity of the synthetic phospholipid, 18:1 DEPX, is unknown lower levels of lipid were delivered to mice to determine if the diether lipid persists in the mouse lung after 24 hours. The previous experiment was repeated with 250 μg, 150 μg and 75 μg 18:1 DEPX delivered to mice. 250 μg was used as a starting point for mice sacrificed at 0 hours following lipid delivery. Subsequently groups of mice given 250 μg, 150 μg and 75 μg of 18:1 DEPX were sacrificed 24 hours following intranasal delivery of lipid. Mouse lungs were lavaged 2 times with 1 mL PBS. Total lipids were extracted by the Bligh-Dyer method from BALF and separated on a Merck Silica 60 glass plate using a touchstone solvent system for separation of lipids by headgroup. Xylitol lipid spots were excised from the silica and quantified by phosphorus assay.

The nature of series [2]: Inflammatory burden caused by intranasal inoculation of 18:1 DEPX. In kind it is in vivo, mouse. The procedure: Doses of 18:1 DEPX ranging from 35 μg to 1 mg were administered to mice by intranasal inoculation. The inflammatory burden caused by delivery of the synthetic lipid to the mouse lung was assessed 24 hours following inoculation. At 24 hours, mice were sacrificed and BALF was collected. The cells in BALF were quantified and cell populations within the lavage fluid were assessed by staining and cytospin analysis.
In order to determine the dose of 18:1 DEPX that is used in RSV challenge experiments, the toxic effects of the lipid were studied by the inflammatory response it elicits following delivery. A range of doses of 18:1 DEPX, from 35 μg to 1 mg, was instilled intranasally to 6-8 week old female BALB/C mice. Mice were sacrificed 24 hours following lipid delivery to best assess immediate inflammatory response. Mouse lungs were lavaged with 1 mL PBS and BALF was assessed for total inflammatory cellular infiltrates quantitatively and further characterized for cell populations by cytospin.
Following quantification of cells in 1 mL BALF, cells were subjected to cytospin and fixed and stained on microscope slides. 500 cells were counted from each slide and the numbers of macrophages, neutrophils and lymphocytes recorded. Delivery of 18:1 DEPX to mice elicits an inflammatory response determined by the influx of neutrophils found in lavage. […] Therefore, a dose of 100 μg 18:1 DEPX was chosen to perform RSV challenge experiments.

For series [3], the system named is RSV. In words: 18:1 DEPX interference with RSV infection in vivo (BALB/c mice). The note with it: 250 μg 18:1 DEPX intranasal, day 6. Set-up: species or system mouse.
Series [4] has as its target T1, TLR 5 (Homo sapiens, UniProt O60602).
T1 construct: endogenous in cells; host or cells: BEAS2B (ATCC)
In words: Flagellin-induced IL-8 in BEAS2B cells (TLR 5 antagonism). The series is classed as cell-based. Conditions: lipid alone. The procedure: Human bronchial epithelial cells, BEAS2B, were obtained from ATCC and maintained in bronchial epithelial cell growth medium (BEGM), supplemented with the BulleKit from Lonza in accordance with protocol (M. H. Hudy, S. et al., “Cigarette smoke modulates rhinovirus-induced airway epithelial cell chemokine production.,” Eur. Respir. J., vol. 35, no. 6, pp. 1256-63, June 2010). Cells were cultured at 37 C with 5% carbon dioxide:95% air atmosphere maintained within the incubator. Experiments were conducted in 48-well plates and cells were seated at a density of 5×10^4 per well. After 24 hours, the BEGM medium was replaced with RPMI-1640 medium and incubated for an additional 24 hours. Liposomes were prepared as described above. […] Subsequently, media were collected, diluted and an enzyme-linked immunosorbent assay (ELISA) was performed to quantify IL-8 release by cells.
TLR 5 is an extracellular member of the TLR family. […] To address whether xylitol analogs antagonize TLR activation due to disruption or destruction of all membrane signaling, PX lipids were assessed at the highest concentration used in experiments reported in this example in human bronchial epithelial cells, BEAS2B, for antagonism of flagellin activation of TLR 5. The cytokine, IL-8, was quantified as an output of TLR 5 activation.

Structures are written as SMILES. Read-outs that look alike come from different tables or passages of the source.

T1 sequence (O60602 21-858): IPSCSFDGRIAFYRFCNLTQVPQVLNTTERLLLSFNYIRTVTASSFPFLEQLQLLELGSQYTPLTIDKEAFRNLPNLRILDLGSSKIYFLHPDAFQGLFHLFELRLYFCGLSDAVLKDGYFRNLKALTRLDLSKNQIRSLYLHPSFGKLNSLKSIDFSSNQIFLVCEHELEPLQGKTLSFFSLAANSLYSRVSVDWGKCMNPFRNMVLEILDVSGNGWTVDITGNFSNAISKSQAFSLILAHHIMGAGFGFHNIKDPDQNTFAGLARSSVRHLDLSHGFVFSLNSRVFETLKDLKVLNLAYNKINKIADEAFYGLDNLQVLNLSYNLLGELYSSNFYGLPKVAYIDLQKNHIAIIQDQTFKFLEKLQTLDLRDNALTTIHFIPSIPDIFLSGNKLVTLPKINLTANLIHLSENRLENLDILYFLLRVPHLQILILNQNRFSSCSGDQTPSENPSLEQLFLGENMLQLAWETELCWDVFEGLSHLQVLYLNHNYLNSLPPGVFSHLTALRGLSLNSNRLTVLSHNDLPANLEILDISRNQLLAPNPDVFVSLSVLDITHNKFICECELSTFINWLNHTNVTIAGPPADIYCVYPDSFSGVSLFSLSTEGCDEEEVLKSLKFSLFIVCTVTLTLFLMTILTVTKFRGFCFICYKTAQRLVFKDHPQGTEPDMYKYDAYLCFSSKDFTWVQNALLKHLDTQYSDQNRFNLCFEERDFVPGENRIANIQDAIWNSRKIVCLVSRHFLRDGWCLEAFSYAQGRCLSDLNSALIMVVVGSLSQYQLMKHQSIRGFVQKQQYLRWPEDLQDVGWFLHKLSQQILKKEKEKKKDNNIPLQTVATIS

On to `CCCCCCCCC=CCCCCCCCCOCC(COP(=O)(O)OCC(O)C(O)C(O)CO)OCCCCCCCCC=CCCCCCCCC` (mixture of isomers) [18:1 DEPX, sn-1-O-octadecenyl, sn-2-O-octadecenyl sn-3 glycerol phosphoxylitol], for which the “xylitol lipid recovered from BALF” value in series [1] (75 μg intranasal, 24 hours) is 10 µg; in series [1] (150 μg intranasal, 24 hours) it was 15 µg; in series [1] (250 μg intranasal, 0 hours) it was “Around 40 μg”; in series [1] (250 μg intranasal, 24 hours), “around 20 μg”. For the same molecule, in series [1] (500 μg intranasal, 24 hours), the “18:1 DEPX detected in recovered lavage” value is “about 20 nmol”. For the same molecule, the “18:1 DEPX in 150 nmol of total BALF lipid loaded” value in series [1] (500 μg intranasal, time zero) is reported as “approximately 42 nmol”. In addition, the “half-life in the mouse lung” value in series [1] (intranasal) was “around 24 hours”. In series [1] (mice), the “starting material recovered after 24 hours” value is on record as 50%. The “BALF cell counts compared to PBS control” value in series [2] (35 μg, 75 μg, 150 μg and 250 μg intranasal, 24 hours) is “did not have cell counts distinguishable from the control”; in series [2] (300 μg, 500 μg and 1 mg intranasal, 24 hours), “significantly higher cell counts”. Besides, the “neutrophils in BALF (cytospin)” value in series [2] (75 μg intranasal, 24 hours) was “significant numbers of neutrophils”. For the same molecule, the mortality entry in series [2] (1 mg intranasal) was “One mouse in the group that received 1 mg of 18:1 DEPX died”. The “dose giving significant cellular infiltrates compared to control mice” value in series [2] (intranasal, 24 hours) is no less than 300 µg. Further, the “doses accompanied with significant cellular infiltrates compared with PBS control” value in series [2] (intranasal, 24 hours) is no less than 300 µg. Also, the “reduction of viral burden by a factor of (qRT-PCR, FIGS. 12A and 12B)” value in series [3] came to 6.2.
As to `CCCCCCC=CCCCCCCCC(=O)OCC(COP(=O)(O)OCC(O)C(O)C(O)CO)OC(=O)CCCCCCCC=CCCCCCC` (mixture of isomers) [16:1 DPPX, sn-1-palmitoleoyl, sn-2-palmitoleoyl sn-3 glycerol phosphoxylitol], the “IL-8 secretion in the absence of Flagellin stimulus” value in series [4] is “stimulate IL-8 secretion over that of the control”.
On the same count and under the same terms, under `CCCCCC=CCC=CCCCCCCCC(=O)OCC(COP(=O)(O)OCC(O)C(O)C(O)CO)OC(=O)CCCCCCCC=CCC=CCCCCC` (mixture of isomers) [18:2 DLPX, sn-1-linoleoyl, sn-2-linoleoyl sn-3 glycerol phosphoxylitol] stands “stimulate IL-8 secretion over that of the control”.

For the origin of these results see patent publication US12472193B2, “Methods and compositions for treating and preventing respiratory related diseases and conditions with xylitol-headgroup lipid analogs” (National Jewish Health, priority 2017, dated 2025).
